Data on twelve compounds can be found in ChEMBL document CHEMBL1157758, “Structural and stereochemical requirements of the spiroketal group of hippuristanol for antiproliferative activity” (Bioorg Med Chem Lett, 2010).

The experiment concerns HeLa. The experiment is described as follows: Antiproliferative activity against human HeLa cells by [3H]thymidine incorporation. The format is functional, cell-based. A general note: Uptake of a labelled nucleoside into DNA is a usual measure of proliferation.

`C[C@]12CC[C@@H](O)C[C@@H]1CC[C@@H]1[C@@H]2[C@@H](O)C[C@@]2(C)[C@H]1C[C@@H]1O[C@@]3(CCCCO3)[C@](C)(O)[C@@H]12`: 1600 nM corresponded to half-maximal inhibition (IC50). This lies in the single-digit micromolar range.
Then `CC1(C)C[C@]2(O[C@H]3C[C@H]4[C@@H]5CC[C@H]6C[C@H](O)CC[C@]6(C)[C@H]5[C@@H](O)C[C@]4(C)[C@H]3[C@@]2(C)O)OC1(C)C`, with 2200 nM.
With `CC1(C)CCC[C@]2(O[C@H]3C[C@H]4[C@@H]5CC[C@H]6C[C@H](O)CC[C@]6(C)[C@H]5[C@@H](O)C[C@]4(C)[C@H]3[C@@]2(C)O)O1` the figure was 4900 nM.
`CCC1(CC)CC[C@@]2(O[C@H]3C[C@H]4[C@@H]5CC[C@H]6C[C@H](O)CC[C@]6(C)[C@H]5[C@@H](O)C[C@]4(C)[C@H]3[C@@]2(C)O)O1` showed an IC50 of 3600 nM.
With `CC1(C)C[C@@]2(O[C@H]3C[C@H]4[C@@H]5CC[C@H]6C[C@H](O)CC[C@]6(C)[C@H]5[C@@H](O)C[C@]4(C)[C@H]3[C@]2(C)O)OC1(C)C` the figure was over 10000 nM; with `C[C@H]1C[C@@]2(O[C@H]3C[C@H]4[C@@H]5CC[C@H]6C[C@H](O)CC[C@]6(C)[C@H]5[C@@H](O)C[C@]4(C)[C@H]3[C@@]2(C)O)OC1(C)C` [HIPPURISTANOL], 70 nM; with `CC1(C)CCC[C@@]2(O[C@H]3C[C@H]4[C@@H]5CC[C@H]6C[C@H](O)CC[C@]6(C)[C@H]5[C@@H](O)C[C@]4(C)[C@H]3[C@@]2(C)O)O1`, 600 nM.
In turn, `CC1(C)CO[C@@]2(C1)O[C@H]1C[C@H]3[C@@H]4CC[C@H]5C[C@H](O)CC[C@]5(C)[C@H]4[C@@H](O)C[C@]3(C)[C@H]1[C@@]2(C)O` registered an IC50 of over 10000 nM.
Then `C[C@]12CC[C@@H](O)C[C@@H]1CC[C@@H]1[C@@H]2[C@@H](O)C[C@@]2(C)[C@H]1C[C@@H]1O[C@]3(CCCCO3)[C@](C)(O)[C@@H]12`, with over 10000 nM; and `CC1(C)CO[C@]2(C1)O[C@H]1C[C@H]3[C@@H]4CC[C@H]5C[C@H](O)CC[C@]5(C)[C@H]4[C@@H](O)C[C@]3(C)[C@H]1[C@@]2(C)O`, with over 10000 nM.
In turn, `CC1(C)C[C@@]2(O[C@H]3C[C@H]4[C@@H]5CC[C@H]6C[C@H](O)CC[C@]6(C)[C@H]5[C@@H](O)C[C@]4(C)[C@H]3[C@@]2(C)O)OC1(C)C` showed an IC50 of 200 nM.
Regarding `CCC1(CC)CC[C@]2(O[C@H]3C[C@H]4[C@@H]5CC[C@H]6C[C@H](O)CC[C@]6(C)[C@H]5[C@@H](O)C[C@]4(C)[C@H]3[C@@]2(C)O)O1`, the IC50 is over 10000 nM.

As usually defined, the IC50 is the midpoint of a concentration-inhibition curve. The low end stands for higher potency, the high end for lower potency.
